Results as given in patent publication US4526989A, “1,4-Bis (substituted-amino)-5,8-dihydroxy-anthraquinones and leuco bases thereof” (priority 1979, dated 1985).
Where two headings read alike, the source gives them in different places.

How the values were obtained:
[1] = tested on: lymphocytic leukemia P388; test: Lymphocytic leukemia P388 test (intraperitoneal administration); format: in vivo, DBA/2 mice
Protocol: The animals used are DBA/2 mice all of one sex, weighing a minimum of 17 g. and all within a 3 gram weight range. There are 5 or 6 animals per test group. The tumor transplant is by intraperitoneal injection of 0.1 ml. of dilute ascitic fluid containing 10^6 cells of lymphocytic leukemia P388. The test compounds are administered intraperitoneally on days one, 5 and 9 (relative to tumor inoculation) at various doses. The animals are weighed and survivors are recorded on a regular basis for 30 days. The median survival time and the ratio of survival time for treated (T)/control (C) animals are calculated.

[2] = tested on: melanotic melanoma B16; test: Melanotic Melanoma B16 test; format: in vivo, C57BC/6 mice; settings: days 1 through 9
Protocol: The animals used are C57BC/6 mice, all of the same sex, weighing a minimum of 17 g. and all within a 3-g. weight range. There are normally 10 animals per test group. A one-gram portion of melanotic melanoma B16 tumor is homogenized in 10 ml. of cold balanced salt solution and a 0.5-ml. aliquot of the homogenate is implanted intraperitoneally into each of the test mice. The test compounds are administered intraperitoneally on days one through 9 (relative to tumor inoculation) at various doses. The animals are weighed and survivors are recorded on a regular basis for 60 days. The median survival time and the ratio of survival time for treated (T)/control (C) animals are calculated. […] The criterion for efficacy is T/C×100≥125%.

[3] = 3.1 mg./kg. i.p., days 1, 5 and 9
[4] = 6.2 mg./kg. i.p., days 1, 5 and 9
[5] = 12.5 mg./kg. i.p., days 1, 5 and 9
[6] = 25 mg./kg. i.p., days 1, 5 and 9
[7] = 50 mg./kg. i.p., days 1, 5 and 9
[8] = Mus musculus, P388, ip, 3.1 mg./kg. i.p., days 1, 5 and 9, efficacy ≥125%, read-out: T/C × 100
[9] = Mus musculus, P388, ip, 6.2 mg./kg. i.p., days 1, 5 and 9, efficacy ≥125%, read-out: T/C × 100
[10] = Mus musculus, P388, ip, 12.5 mg./kg. i.p., days 1, 5 and 9, efficacy ≥125%, read-out: T/C × 100
[11] = Mus musculus, P388, ip, 25 mg./kg. i.p., days 1, 5 and 9, efficacy ≥125%, read-out: T/C × 100
[12] = Mus musculus, P388, ip, 50 mg./kg. i.p., days 1, 5 and 9, efficacy ≥125%, read-out: T/C × 100
[13] = Mus musculus, ip, 3 mg./kg. i.p., efficacy ≥125%, read-out: T/C × 100
[14] = Mus musculus, ip, 6 mg./kg. i.p., efficacy ≥125%, read-out: T/C × 100
[15] = 100 mg./kg. i.p., days 1, 5 and 9
[16] = Mus musculus, P388, ip, 100 mg./kg. i.p., days 1, 5 and 9, efficacy ≥125%, read-out: T/C × 100
[17] = 1.56 mg./kg. i.p., days 1, 5 and 9
[18] = 6.25 mg./kg. i.p., days 1, 5 and 9
[19] = Mus musculus, P388, ip, 1.56 mg./kg. i.p., days 1, 5 and 9, efficacy ≥125%, read-out: T/C × 100
[20] = Mus musculus, P388, ip, 6.25 mg./kg. i.p., days 1, 5 and 9, efficacy ≥125%, read-out: T/C × 100
[21] = 0.78 mg./kg. i.p., days 1, 5 and 9
[22] = Mus musculus, P388, ip, 0.78 mg./kg. i.p., days 1, 5 and 9, efficacy ≥125%, read-out: T/C × 100

| Compound | Median Survival Time [1, 3] | Median Survival Time [1, 4] | Median Survival Time [1, 5] | Median Survival Time [1, 6] | Median Survival Time [1, 7] | response vs control in vivo at 3.1 mg/kg [1, 8] | response vs control in vivo at 6.2 mg/kg [1, 9] | response vs control in vivo at 12.5 mg/kg [1, 10] | response vs control in vivo at 25 mg/kg [1, 11] | response vs control in vivo at 50 mg/kg [1, 12] | Median Survival Time ([2]; 3 mg./kg. i.p.) | Median Survival Time ([2]; 6 mg./kg. i.p.) | Median Survival Time ([2]; 12 mg./kg. i.p.) | response vs control in vivo at 3 mg/kg [2, 13] | response vs control in vivo at 6 mg/kg [2, 14] | Median Survival Time [1, 15] | response vs control in vivo at 100 mg/kg [1, 16] | Median Survival Time ([2]; 25 mg./kg. i.p.) | Median Survival Time ([2]; 50 mg./kg. i.p.) | Median Survival Time [1, 17] | further results |
| --- | --- | --- | --- | --- | --- | --- | --- | --- | --- | --- | --- | --- | --- | --- | --- | --- | --- | --- | --- | --- | --- |
| CNCCNC1=C2C(=O)c3c(O)ccc(O)c3C(=O)C2=C(NCCNC)CC1 [Leuco-1,4-bis[2-(methylamino)ethylamino]-5,8-dihydroxyanthraquinone] | 15.0 days | 21.0 days | 19.0 days | 19.0 days | 6.0 days | 136% | 191% | 173% | 173% | 55% | 31.0 days | 32.5 days | 28.0 days | 194% | 203% |  |  |  |  |  | Median Survival Time ([1]; 1.5 mg./kg. i.p., days 1, 5 and 9): 13.0 days; response vs control in vivo at 1.5 mg/kg ([1]; Mus musculus, P388, ip, 1.5 mg./kg. i.p., days 1, 5 and 9, efficacy ≥125%, read-out: T/C × 100): 118%; Median Survival Time ([2]; 0.7 mg./kg. i.p.): 27.5 days; Median Survival Time ([2]; 1.5 mg./kg. i.p.): 36.0 days; response vs control in vivo at 0.7 mg/kg ([2]; Mus musculus, ip, 0.7 mg./kg. i.p., efficacy ≥125%, read-out: T/C × 100): 172%; response vs control in vivo at 1.5 mg/kg ([2]; Mus musculus, ip, 1.5 mg./kg. i.p., efficacy ≥125%, read-out: T/C × 100): 225%; response vs control in vivo at 12 mg/kg ([2]; Mus musculus, ip, 12 mg./kg. i.p., efficacy ≥125%, read-out: T/C × 100): 175% |
| O=C1C2=C(NCCN3CCNCC3)CCC(NCCN3CCNCC3)=C2C(=O)c2c(O)ccc(O)c21 [Leuco-1,4-bis[2-(1-piperazinyl)ethylamino]-5,8-dihydroxyanthraquinone] |  |  | 14.0 days | 15.0 days | 16.0 days |  |  | 156% | 167% | 178% | 20.5 days | 22.0 days |  | 121% | 129% | 21.0 days | 233% | 30.5 days | 34.5 days |  | Median Survival Time ([1]; 200 mg./kg. i.p., days 1, 5 and 9): 7.0 days; response vs control in vivo at 200 mg/kg ([1]; Mus musculus, P388, ip, 200 mg./kg. i.p., days 1, 5 and 9, efficacy ≥125%, read-out: T/C × 100): 78%; Median Survival Time ([2]; 12.5 mg./kg. i.p.): 26.0 days; response vs control in vivo at 12.5 mg/kg ([2]; Mus musculus, ip, 12.5 mg./kg. i.p., efficacy ≥125%, read-out: T/C × 100): 153%; response vs control in vivo at 25 mg/kg ([2]; Mus musculus, ip, 25 mg./kg. i.p., efficacy ≥125%, read-out: T/C × 100): 179%; response vs control in vivo at 50 mg/kg ([2]; Mus musculus, ip, 50 mg./kg. i.p., efficacy ≥125%, read-out: T/C × 100): 203% |
| CC(C)NCCNC1=C2C(=O)c3c(O)ccc(O)c3C(=O)C2=C(NCCNC(C)C)CC1 [Leuco-1,4-bis[2-(2-isopropylamino)ethylamino]-5,8-dihydroxyanthraquinone] |  |  | 15.0 days | 17.0 days | 19.0 days |  |  |  |  |  |  | 25.0 days | 30.0 days |  |  | 8.0 days |  | 31.0 days | 6.5 days |  | T/C × 100 ([1]; 12.5 mg./kg. i.p., days 1, 5 and 9, efficacy ≥125%): 136%; T/C × 100 ([1]; 25 mg./kg. i.p., days 1, 5 and 9, efficacy ≥125%): 155%; T/C × 100 ([1]; 50 mg./kg. i.p., days 1, 5 and 9, efficacy ≥125%): 173%; T/C × 100 ([1]; 100 mg./kg. i.p., days 1, 5 and 9, efficacy ≥125%): 73%; T/C × 100 ([2]; 6 mg./kg. i.p., efficacy ≥125%): 151%; T/C × 100 ([2]; 12 mg./kg. i.p., efficacy ≥125%): 182%; T/C × 100 ([2]; 25 mg./kg. i.p., efficacy ≥125%): 188%; T/C × 100 ([2]; 50 mg./kg. i.p., efficacy ≥125%): 39% |
| CNCCNCCNc1ccc(NCCNCCNC)c2c1C(=O)c1c(O)ccc(O)c1C2=O.Cl.Cl.Cl.Cl [1,4-Bis[2-(2-methylaminoethylamino)ethylamino]-5,8-dihydroxyanthraquinone Tetrahydrochloride] |  |  | 17.0 days | 19.5 days | 22.0 days |  |  | 170% | 195% | 220% |  |  |  |  |  | 22.0 days | 220% |  |  | 13.0 days | Median Survival Time ([1]; 1.12 mg./kg. i.p., days 1, 5 and 9): 13.5 days; Median Survival Time [1, 18]: 16.0 days; response vs control in vivo at 1.12 mg/kg ([1]; Mus musculus, P388, ip, 1.12 mg./kg. i.p., days 1, 5 and 9, efficacy ≥125%, read-out: T/C × 100): 135%; response vs control in vivo at 1.56 mg/kg [1, 19]: 130%; response vs control in vivo at 6.25 mg/kg [1, 20]: 160% |
| Cl.Cl.O=C1c2c(O)ccc(O)c2C(=O)c2c(NCCNCCCO)ccc(NCCNCCCO)c21 [1,4-Bis[2-(3-hydroxy-1-propylamino)ethylamino]-5,8-dihydroxyanthraquinone dihydrochloride] | 25.0 days |  | > 30.0 days | 8.5 days |  | 227% |  | > 273% | 77% |  |  |  |  |  |  |  |  |  |  | 22.0 days | Median Survival Time [1, 21]: 21.5 days; Median Survival Time [1, 18]: 26.0 days; response vs control in vivo at 1.56 mg/kg ([1]; Mus musculus, P388, ip, read-out: T/C × 100): 200%; response vs control in vivo at 0.78 mg/kg [1, 22]: 195%; response vs control in vivo at 6.25 mg/kg [1, 20]: 236% |
| Cl.Cl.NCCNc1ccc(NCCN)c2c1C(=O)c1c(O)ccc(O)c1C2=O [1,4-Bis(2-aminoethylamino)-5,8-dihydroxyanthraquinone dihydrochloride] | 30.0 days | 15.5 days | 8.0 days |  |  | 273% | 141% | 73% |  |  |  |  |  |  |  |  |  |  |  | 20.0 days | Median Survival Time ([1]; 0.19 mg./kg. i.p., days 1, 5 and 9): 23.0 days; Median Survival Time ([1]; 0.39 mg./kg. i.p., days 1, 5 and 9): 25.5 days; Median Survival Time [1, 21]: 24.5 days; response vs control in vivo at 0.19 mg/kg ([1]; Mus musculus, P388, ip, 0.19 mg./kg. i.p., days 1, 5 and 9, efficacy ≥125%, read-out: T/C × 100): 209%; response vs control in vivo at 0.39 mg/kg ([1]; Mus musculus, P388, ip, 0.39 mg./kg. i.p., days 1, 5 and 9, efficacy ≥125%, read-out: T/C × 100): 232%; response vs control in vivo at 0.78 mg/kg [1, 22]: 223%; response vs control in vivo at 1.56 mg/kg [1, 19]: 182% |
